Measurements taken from patent US20170275270A1, “BENZYL SUBSTITUTED INDAZOLES” (Bayer Pharma Aktiengesellschaft, priority 2014, published 2017).
Where a name gives a salt, the structure may show the parent alone. Read-outs that look alike come from different tables or passages of the source.

Legend:
[1] = target: T1, catalytic domain of human Bub1 (amino acids 704-1085) (Homo sapiens, UniProt O43683); assay: Bub1 kinase assay (TR-FRET); assay type: biochemical
T1 construct: catalytic domain of human Bub1 (amino acids 704-1085); His6 (N); made in house; host or cells: Hi5 insect cells
Summary of the method: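 Compounds from 2 mM DMSO stocks, serially diluted 1:3.4, incubated with enzyme at 22° C for 60 min. Stopped with EDTA, then 1 h with streptavidin-XL665, anti-phosphoserine antibody and Eu-labelled anti-mouse IgG. Phosphorylated biotin-peptide read by TR-FRET; IC50 by 4-parameter logistic fit.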

HeLa = assay: Proliferation assay (HeLa cell line);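 further: crystal violet staining of cell number, scaled between a plate stained before dosing (0%) and cells left untreated (100%), compounds tested at 0.001-10 µM, IC50 via 4-parameter fit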
Description: Cultivated tumor cells (cells were ordered from ATCC, except HeLa-MaTu and HeLa-MaTu-ADR, which were ordered from EPO-GmbH, Berlin) were plated at a density of 1000 to 5000 cells/well, depending on the growth rate of the respective cell line, in a 96-well multititer plate in 200 μL of their respective growth medium supplemented 10% fetal calf serum. After 24 hours, the cells of one plate (zero-point plate) were stained with crystal violet (see below), while the medium of the other plates was replaced by fresh culture medium (200 μL), to which the test substances were added in various concentrations (0 μM, as well as in the range of 0.001-10 μM; the final concentration of the solvent dimethyl sulfoxide was 0.5%). The cells were incubated for 4 days in the presence of test substances. Cell proliferation was determined by staining the cells with crystal violet: the cells were fixed by adding 20 μL measuring point of an 11% glutaric aldehyde solution for 15 minutes at room temperature. After three washing cycles of the fixed cells with water, the plates were dried at room temperature. The cells were stained by adding 100 μL/measuring point of a 0.1% crystal violet solution (pH 3.0). After three washing cycles of the stained cells with water, the plates were dried at room temperature. The dye was dissolved by adding 100 μl/measuring point of a 10% acetic acid solution. […] The change of cell number, in percent, was calculated by normalization of the measured values to the absorbtion values of the zero-point plate (=0%) and the absorbtion of the untreated (0 μm) cells (=100%). The IC50 values were determined by means of a 4 parameter fit.

[2] = tested on: HeLa human cervical tumor cells; assay: Proliferation assay (HeLa+Paclitaxel); conditions: read-out: Biological Assay 3: HeLa + Paclitaxel IC50, 3 nM paclitaxel, crystal violet;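 further: compounds at 0.001-10 µM added 4 h after paclitaxel, 92 h exposure, absorbance normalized to zero-point plate (0%) and untreated cells (100%), IC50 from 4-parameter fit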
Bub1 = Bub1 (Homo sapiens, UniProt O43683); assay: Formation-Assay: phosphorylation status of histone 2A by inhibition of kinase activity of Bub1; assay type: cell-based; conditions: 16 h
Description: Biological Assay 4.1: Formation-Assay
Cell-Based Mechanistic Assay: Changes of Phosphorylation Status of Histone 2A by Inhibition of Kinase Activity of Bub1
This assay determines the suppression of histone 2A phosphorylation by a Bub1 kinase inhibitor during co-treatment with Nocodazole. 25000 cells (cells were ordered from ATCC) were seeded in 96 well plate for 5 h at 37° C. Cells were treated with Nocodazole (1 μg/ml) and varying concentrations (between 3 nM and 10 μM) of test compounds for 16 h. Cells were fixed (20 min, Fixing solution R&D), washed three times with PBS and blocked with Odyssey blocking buffer before incubating with the primary antibody against phosphorylated H2A (5 μg/ml ABIN482721) overnight at 2-8° C. After washing, secondary IRDye-labeled antibody mix with cell stains was added for 1 h and washed again with PBS. Plates were scanned with LiCor Odyssey Infrared Imager CLx at 800 nm for P-H2A and at 700 nm for cell stains Draq5/Sapphire. The quotient of 800 nm and 700 nm for Nocodazole only treated cells was set as 100% and the quotient of 800 nm and 700 nm of untreated cells was set as 0%.
Histone H2A is an immediate intracellular substrate of Bub1 kinase. Determination of the phosphorylation status of Histone H2A provides a direct measure of the intracellular activity of Bub1 kinase.

[3] = 10 μM ATP, read-out: Biological Assay 1: Bub1 kinase assay median IC50
[4] = Biological Assay 1: Bub1 kinase assay median IC50, 10 μM ATP
[5] = Homo sapiens, 96 h, read-out: Biological Assay 2: Proliferation assay (HeLa cell line) median IC50
[6] = Biological Assay 4.1: H2A Formation IC50, co-treatment with Nocodazole 1 μg/ml

Chain of Bub1 (O43683 whole entry): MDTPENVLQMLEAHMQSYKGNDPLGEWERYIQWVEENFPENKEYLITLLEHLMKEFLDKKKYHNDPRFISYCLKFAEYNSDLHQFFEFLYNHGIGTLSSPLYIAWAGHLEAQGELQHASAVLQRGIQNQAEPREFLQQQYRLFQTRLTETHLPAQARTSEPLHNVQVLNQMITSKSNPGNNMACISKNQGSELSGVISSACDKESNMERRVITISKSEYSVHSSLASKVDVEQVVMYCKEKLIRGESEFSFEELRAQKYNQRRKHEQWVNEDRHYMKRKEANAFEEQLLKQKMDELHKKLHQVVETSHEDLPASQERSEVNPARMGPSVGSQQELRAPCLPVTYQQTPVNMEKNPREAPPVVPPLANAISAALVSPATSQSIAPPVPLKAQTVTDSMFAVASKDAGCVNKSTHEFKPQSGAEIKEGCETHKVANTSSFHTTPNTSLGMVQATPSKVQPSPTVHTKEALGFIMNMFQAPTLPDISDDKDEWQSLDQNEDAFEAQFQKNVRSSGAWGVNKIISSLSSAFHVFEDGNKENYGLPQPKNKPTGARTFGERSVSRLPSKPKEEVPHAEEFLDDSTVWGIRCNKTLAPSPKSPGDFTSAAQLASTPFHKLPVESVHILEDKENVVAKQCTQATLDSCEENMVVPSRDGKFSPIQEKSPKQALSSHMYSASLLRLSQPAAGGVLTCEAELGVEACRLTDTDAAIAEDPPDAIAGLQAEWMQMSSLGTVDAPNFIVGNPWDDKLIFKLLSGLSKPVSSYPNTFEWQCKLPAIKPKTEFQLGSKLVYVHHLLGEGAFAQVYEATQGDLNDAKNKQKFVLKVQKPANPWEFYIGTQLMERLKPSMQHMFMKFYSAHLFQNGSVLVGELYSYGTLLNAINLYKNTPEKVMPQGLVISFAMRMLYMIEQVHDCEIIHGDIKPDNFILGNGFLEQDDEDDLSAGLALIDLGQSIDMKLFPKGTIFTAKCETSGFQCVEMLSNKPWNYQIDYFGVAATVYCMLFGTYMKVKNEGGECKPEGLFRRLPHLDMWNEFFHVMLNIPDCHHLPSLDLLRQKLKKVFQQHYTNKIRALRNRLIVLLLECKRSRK
T1 sequence (O43683 704-1085): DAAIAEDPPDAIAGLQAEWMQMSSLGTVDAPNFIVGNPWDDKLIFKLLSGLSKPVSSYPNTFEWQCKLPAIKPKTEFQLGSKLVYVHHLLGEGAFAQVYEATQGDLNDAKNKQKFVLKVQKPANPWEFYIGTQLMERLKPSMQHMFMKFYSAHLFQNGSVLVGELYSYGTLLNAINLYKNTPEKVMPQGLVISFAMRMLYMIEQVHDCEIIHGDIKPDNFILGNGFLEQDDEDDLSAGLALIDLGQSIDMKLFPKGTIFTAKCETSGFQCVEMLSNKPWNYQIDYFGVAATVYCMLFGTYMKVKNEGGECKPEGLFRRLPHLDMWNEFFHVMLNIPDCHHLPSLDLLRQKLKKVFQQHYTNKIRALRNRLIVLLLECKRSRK

“2-{3,5-difluoro-4-[(3-{5-[2-(methylsulfonyl)ethyl]-4-(eparate-4-ylamino)pyrimidin-2-yl}-1H-indazol-1-yl)methyl]phenoxy}ethanol [Example 2-4-1]” showed an IC50 [1, 3] of 12 nM, an IC50 (HeLa; read-out: Biological Assay 2: Proliferation assay (HeLa cell line) median IC50, 4 days, crystal violet) greater than 10000 nM and an IC50 [2] of 3600 nM. The IC50 (Bub1; co-treatment with Nocodazole 1 μg/ml, read-out: Biological Assay 4.1: H2A Formation IC50) was 96 nM.
CCOc1cc(F)c(Cn2nc(-c3ncc(CC[S@@+](C)[O-])c(Nc4ccncc4)n3)c3ccccc32)c(F)c1 [Example 2-1-1, 2-[1-(4-ethoxy-2,6-difluorobenzyl)-1H-indazol-3-yl]-5-{2-[(R)-methylsulfinyl]ethyl}-N-(pyridin-4-yl)pyrimidin-4-amine] gave an IC50 [1, 4] of 5 nM, an IC50 (HeLa; [5]) of 3600 nM and an IC50 [2] of 150 nM. For the same compound, the IC50 (Bub1; [6]) was 1400 nM.
CCOc1cc(F)c(Cn2nc(-c3ncc(CCCCN4CCOCC4)c(Nc4ccncc4)n3)c3ccccc32)c(F)c1 [Example 2-2-12, 2-[1-(4-ethoxy-2,6-difluorobenzyl)-1H-indazol-3-yl]-5-[4-(morpholin-4-yl)butyl]-N-(pyridin-4-yl)pyrimidin-4-amine] showed an IC50 [1, 4] of 12 nM, an IC50 (HeLa; [5]) of 2300 nM and an IC50 [2] of 170 nM. The IC50 (Bub1; [6]) was 800 nM.
In the case of CCOc1cc(F)c(Cn2nc(-c3ncc(CCCN4CCOCC4)c(Nc4ccncc4C(F)(F)F)n3)c3ccccc32)c(F)c1 [Example 2-2-14, 2-[1-(4-ethoxy-2,6-difluorobenzyl)-1H-indazol-3-yl]-5-[3-(morpholin-4-yl)propyl]-N-[3-(trifluoromethyl)pyridin-4-yl]pyrimidin-4-amine], the IC50 [1, 4] is reported as 130 nM, the IC50 (HeLa; [5]) is reported as 7800 nM and the IC50 [2] is reported as 140 nM. It also gave an IC50 (Bub1; [6]) of 3900 nM.
CCOc1cc(F)c(Cn2nc(-c3ncc(CCN4CCCC(F)(F)C4)c(Nc4ccncc4)n3)c3ccccc32)c(F)c1 [Example 2-2-16, 5-[2-(3,3-difluoropiperidin-1-yl)ethyl]-2-[1-(4-ethoxy-2,6-difluorobenzyl)-1H-indazol-3-yl]-N-(pyridin-4-yl)pyrimidin-4-amine] showed an IC50 [1, 4] of 15 nM, an IC50 (HeLa; [5]) of 6900 nM and an IC50 [2] of 230 nM. For the same compound, the IC50 (Bub1; [6]) was 1900 nM.
For CCOc1cc(F)c(Cn2nc(-c3ncc(CCCCN4CCCC(F)(F)C4)c(Nc4ccncc4)n3)c3ccccc32)c(F)c1 [Example 2-2-17, 5-[4-(3,3-difluoropiperidin-1-yl)butyl]-2-[1-(4-ethoxy-2,6-difluorobenzyl)-1H-indazol-3-yl]-N-(pyridin-4-yl)pyrimidin-4-amine], the IC50 [1, 4] was 95 nM, the IC50 (HeLa; [5]) was 9300 nM and the IC50 [2] was 340 nM. For the same compound, the IC50 (Bub1; [6]) was 1200 nM.
CCOc1cc(F)c(Cn2nc(-c3ncc(CCCN4CCC(F)(F)CC4)c(Nc4ccncc4)n3)c3ccccc32)c(F)c1 [Example 2-2-18, 5-[3-(4,4-difluoropiperidin-1-yl)propyl]-2-[1-(4-ethoxy-2,6-difluorobenzyl)-1H-indazol-3-yl]-N-(pyridin-4-yl)pyrimidin-4-amine] was tested, and the IC50 [1, 4] was 130 nM, the IC50 (HeLa; [5]) was greater than 10000 nM and the IC50 [2] was 400 nM. For the same compound, the IC50 (Bub1; [6]) was 8700 nM.
In the case of CCOc1cc(F)c(Cn2nc(-c3ncc(CN4CC(F)(F)C4)c(Nc4ccncc4)n3)c3ccccc32)c(F)c1 [Example 2-2-19, 5-[(3,3-difluoroazetidin-1-yl)methyl]-2-[1-(4-ethoxy-2,6-difluorobenzyl)-1H-indazol-3-yl]-N-(pyridin-4-yl)pyrimidin-4-amine], the IC50 [1, 4] is reported as 28 nM, the IC50 (HeLa; [5]) is reported as 5400 nM and the IC50 [2] is reported as 630 nM. It also gave an IC50 (Bub1; [6]) of 1800 nM.
With CCOc1cc(F)c(Cn2nc(-c3ncc(CCCS(C)(=O)=O)c(Nc4ccncc4)n3)c3ccccc32)c(F)c1 [Example 2-3-2, 2-[1-(4-ethoxy-2,6-difluorobenzyl)-1H-indazol-3-yl]-5-[3-(methylsulfonyl)propyl]-N-(pyridin-4-yl)pyrimidin-4-amine] the IC50 [1, 4] was 9 nM, the IC50 (HeLa; [5]) was 2800 nM and the IC50 (Bub1; [6]) was 990 nM.
With CCOc1cc(F)c(Cn2nc(-c3nc(CS(C)(=O)=O)cc(Nc4ccncc4)n3)c3ccccc32)c(F)c1 [Example 2-3-4, 2-[1-(4-ethoxy-2,6-difluorobenzyl)-1H-indazol-3-yl]-6-[(methylsulfonyl)methyl]-N-(pyridin-4-yl)pyrimidin-4-amine] the IC50 [1, 4] was 5.9 nM, the IC50 (HeLa; [5]) was 2100 nM and the IC50 [2] was 1000 nM. For the same compound, the IC50 (Bub1; [6]) was 0.52 nM.
For CS(=O)(=O)CCCc1cnc(-c2nn(Cc3c(F)cc(OCCO)cc3F)c3ccccc23)nc1Nc1ccncc1 [Example 2-4-2, 2-{3,5-difluoro-4-[(3-{5-[3-(methylsulfonyl)propyl]-4-(pyridin-4-ylamino)pyrimidin-2-yl}-1H-indazol-1-yl)methyl]phenoxy}ethanol], the IC50 [1, 4] was 15 nM, the IC50 (HeLa; [5]) was greater than 10000 nM and the IC50 [2] was 3900 nM. It also gave an IC50 (Bub1; [6]) of 70 nM.
With CC(=O)Nc1cc(Nc2nc(-c3nn(Cc4c(F)cc(OCCO)cc4F)c4ccccc34)nc3c2CCC3)ccn1 [Example 2-4-6, N-{4-[(2-{1-[2,6-difluoro-4-(2-hydroxyethoxy)benzyl]-1H-indazol-3-yl}-6,7-dihydro-5H-cyclopenta[d]pyrimidin-4-yl)amino]pyridin-2-yl}acetamide] the IC50 [1, 4] was 9.9 nM, the IC50 (HeLa; [5]) was 2100 nM and the IC50 (Bub1; [6]) was 130 nM.
Cc1nccc(Nc2nc(-c3nn(Cc4c(F)cc(OCCO)cc4F)c4ccccc34)ncc2C2CCN(CC(F)F)CC2)n1 [Example 2-6-17, 2-{4-[(3-{5-[1-(2,2-difluoroethyl)piperidin-4-yl]-4-[(2-methylpyrimidin-4-yl)amino]pyrimidin-2-yl}-1H-indazol-1-yl)methyl]-3,5-difluorophenoxy} ethanol] was tested, and the IC50 [1, 4] was 58 nM, the IC50 (HeLa; [5]) was 6800 nM and the IC50 (Bub1; [6]) was 6 nM.
CCOc1cc(F)c(Cn2nc(-c3ncc(C4CNC4)c(Nc4ccncc4)n3)c3ccccc32)c(F)c1 [Example 2-9-1, 5-(azetidin-3-yl)-2-[1-(4-ethoxy-2,6-difluorobenzyl)-1H-indazol-3-yl]-N-(pyridin-4-yl)pyrimidin-4-amine, salt with hydrochloric acid] gave an IC50 [1, 3] of 9.4 nM, an IC50 (HeLa; [5]) of 1300 nM and an IC50 (Bub1; [6]) of 17 nM.
CCOc1cc(F)c(Cn2nc(-c3nc4c(c(Nc5ccnc(C(F)(F)F)c5)n3)CNCC4)c3ccccc32)c(F)c1 [Example 2-9-17, 2-[1-(4-ethoxy-2,6-difluorobenzyl)-1H-indazol-3-yl]-N-[2-(trifluorometh-yl)pyridin-4-yl]-5,6,7,8-tetrahydro-pyrido[4,3-d]pyr-imidin-4-amine] was tested, and the IC50 (HeLa; [5]) was 2100 nM, the IC50 [2] was 130 nM and the IC50 (Bub1; [6]) was 2 nM.
In the case of CCOc1cc(F)c(Cn2nc(-c3ncc(C4CCN(CC(F)F)CC4)c(Nc4ccncc4OC)n3)c3ccccc32)c(F)c1 [Example 2-11-5, 5-[1-(2,2-difluoroethyl)piper-idin-4-yl]-2-[1-(4-ethoxy-2,6-difluorobenzyl)-1H-indazol-3-yl]-N-(3-methoxypyridin-4-yl)pyrimidin-4-amine], the IC50 [1, 4] is reported as 23 nM, the IC50 (HeLa; [5]) is reported as 1700 nM and the IC50 (Bub1; [6]) is reported as 8.3 nM.
Compound CCOc1cc(F)c(Cn2nc(-c3nc(C)c(F)c(Nc4ccnc(C(F)(F)F)c4)n3)c3ccccc32)c(F)c1 [Example 2-12-21, 2-[1-(4-ethoxy-2,6-difluorobenzyl)-1H-indazol-3-yl]-5-fluoro-6-methyl-N-[2-(trifluoromethyl)pyridin-4-yl]pyrimidin-4-amine] has an IC50 (HeLa; [5]) greater than 10000 nM, an IC50 [2] of 670 nM and an IC50 (Bub1; [6]) of 38 nM.
Compound CCOc1cc(F)c(Cn2nc(-c3ncc(OCC(=O)N4CC(F)(F)C4)c(Nc4ccncc4)n3)c3ccccc32)c(F)c1 [Example 3-5-1, 1-(3,3-difluoroazetidin-1-yl)-2-({2-[1-(4-ethoxy-2,6-difluorobenzyl)-1H-indazol-3-yl]-4-(pyridin-4-ylamino)pyrimidin-5-yl}oxy)ethanone, reference compound] has an IC50 [1, 4] of 8 nM, an IC50 (HeLa; [5]) of 3900 nM and an IC50 (Bub1; [6]) of 360 nM.
